Experimental data: patent publication EP3502102A1, “STING INHIBITORS” (ECOLE POLYTECHNIQUE FEDERALE DE LAUSANNE (EPFL), priority 2017, dated 2019)

Target: T1, STING (Mus musculus, UniProt Q3TBT3)
T1 sequence (Q3TBT3 1-378): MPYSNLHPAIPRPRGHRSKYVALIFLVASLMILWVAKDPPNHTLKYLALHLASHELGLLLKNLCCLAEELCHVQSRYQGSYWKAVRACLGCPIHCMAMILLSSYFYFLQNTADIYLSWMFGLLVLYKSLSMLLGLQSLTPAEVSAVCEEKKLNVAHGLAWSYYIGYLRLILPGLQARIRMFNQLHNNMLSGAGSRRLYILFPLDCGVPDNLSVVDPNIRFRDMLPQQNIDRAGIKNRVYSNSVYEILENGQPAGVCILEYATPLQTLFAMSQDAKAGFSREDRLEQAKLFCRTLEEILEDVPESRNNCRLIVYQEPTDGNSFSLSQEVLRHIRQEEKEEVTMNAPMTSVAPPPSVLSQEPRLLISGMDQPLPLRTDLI
Assay: IFN-beta luciferase reporter in HEK293T cells transfected with STING, alone or with a cyclic dinucleotide synthase
Format: cell-based
Design: expressed in transfected cells; host or cells: HEK293T
Details: wild-type HEK293T; STING expressed alone or in conjunction with cdG-Syn; 0.01-5µM; 16 h
Procedure: Reporter activity was measured 16 h after compound treatment. A nonlinear regression analysis was performed. […] Cytokine levels were normalized to DMSO-treated control cells. […] Nuclei were stained with DAPI. […] Depicted genes were measured by RT-qPCR. […] 16 h later Luciferase activity was measured. […] Flag-STING was immunoprecipitated and analysed by autoradiography.
HEK293T cells expressing murine STING with an N-terminal mCherry-tag ^28 were transfected using GeneJuice (Millipore) with a construct encoding for cyclic di-GMP synthase in conjunction with an IFN-• firefly luciferase reporter plasmid. 3 h after transfection cells were seeded in […] (Corning) coated with library compounds. For each compounds, a 40 nl volume was selected to obtain a concentration of 10 µM in the assay plates. The amount of DMSO in each well was normalised to 0.1%. After overnight treatment, cells were lysed in lysis buffer (25 mM Tris-phosphate (pH 7.8), 2 mM DTT, 2 mM 1,2-diaminocyclohexane-N,N,N',N'-tetraacetic acid, 10% glycerol, 1% Triton® X-100) for 20 min followed by the addition of firefly luciferase. Reporter activity was measured using a Tecan Infinite plate reader. The screen was performed using on ∼ 20.000 compounds from a chemically diverse compound collection available at the BSF core facility at EPFL.
In these cells, transient transfection of vectors encoding for cyclic di-GMP synthase (cdG-Syn) and an IFN-• reporter leads to robust induction of firefly luciferase activity. We used this system to perform a high-throughput chemical screen with a library of ∼ 20.000 small molecule compounds (Fig. 6b). To increase the selectivity of candidate compounds against the STING pathway, hits from the primary screen were counter-screened for their effect on RIG-I-driven activation of the IFN-• reporter. […] To further validate the two small molecules, we treated wild-type HEK293T cells with C-178 and C-176, in which STING was either expressed alone or in conjunction with cdG-Syn. […] We next conducted a limited structure-activity relationship (SAR) analysis. Since both C-178 and C-176 share a characteristic nitrofuran moiety, we prepared analogues of C-176/8 in which this structural motif was substituted (Fig. 1c).

O=C(Nc1ccc(I)cc1)c1ccc([N+](=O)[O-])o1 [C-176, N-(4-iodophenyl)-5-nitro-2-furamide]
half-maximal inhibitory concentration (IC50) values, IFN-• reporter activity: nanomolar
